Source: article PMC10141580, “Cyclic Dichalcogenides Extend the Reach of Bioreductive Prodrugs to Harness Thiol/Disulfide Oxidoreductases: Applications to seco-Duocarmycins Targeting the Thioredoxin System” (ACS Central Science, 2023)
Like-named read-outs stand apart in the source and are kept apart here.

System: NCI-60 standardized human tumor cell line panel
Assay: cells
Assay type: cell-based
[1] = cell line A549/ATCC (LC:A549/ATCC), TMI sheet
[2] = cell line BT-549 (BR:BT-549), TMI sheet
[3] = cell line CCRF-CEM (LE:CCRF-CEM), TMI sheet
[4] = cell line COLO 205 (CO:COLO 205), TMI sheet
[5] = cell line EKVX (LC:EKVX), TMI sheet
[6] = cell line HCC-2998 (CO:HCC-2998), TMI sheet
[7] = cell line HCT-15 (CO:HCT-15), TMI sheet
[8] = cell line HCT-116 (CO:HCT-116), TMI sheet
[9] = cell line HL-60(TB) (LE:HL-60(TB)), TMI sheet
[10] = cell line HOP-62 (LC:HOP-62), TMI sheet
[11] = cell line HOP-92 (LC:HOP-92), TMI sheet
[12] = cell line HT29 (CO:HT29), TMI sheet
[13] = cell line K-562 (LE:K-562), TMI sheet
[14] = cell line KM12 (CO:KM12), TMI sheet
[15] = cell line LOX IMVI (ME:LOX IMVI), TMI sheet
[16] = cell line M14 (ME:M14), TMI sheet
[17] = cell line MALME-3M (ME:MALME-3M), TMI sheet
[18] = cell line MCF7 (BR:MCF7), TMI sheet
[19] = cell line MDA-MB-435 (ME:MDA-MB-435), TMI sheet
[20] = cell line MOLT-4 (LE:MOLT-4), TMI sheet
[21] = cell line NCI-H23 (LC:NCI-H23), TMI sheet
[22] = cell line NCI-H226 (LC:NCI-H226), TMI sheet
[23] = cell line RPMI-8226 (LE:RPMI-8226), TMI sheet
[24] = cell line SF-539 (CNS:SF-539), TMI sheet
[25] = cell line SK-MEL-5 (ME:SK-MEL-5), TMI sheet
[26] = cell line SK-MEL-28 (ME:SK-MEL-28), TMI sheet
[27] = cell line SNB-19 (CNS:SNB-19), TMI sheet
[28] = cell line SR (LE:SR), TMI sheet
[29] = cell line SW-620 (CO:SW-620), TMI sheet
[30] = cell line T-47D (BR:T-47D), TMI sheet
[31] = cell line U251 (CNS:U251), TMI sheet
[32] = cell line UACC-62 (ME:UACC-62), TMI sheet
[33] = cell line UACC-257 (ME:UACC-257), TMI sheet

COc1cc2cc(C(=O)N3CC(CCl)c4c3cc(OC(=O)N3CCN(C)C5CSSCC53)c3ccccc43)[nH]c2c(OC)c1OC (mixture of isomers) [Me-SS66T-CBI-TMI]
GI50 (TK-10, read-out: GI50): 130 nM | GI50 (U251, read-out: GI50): 11 nM | GI50 (UACC-62, read-out: GI50): 15 nM | GI50 (UACC-257, read-out: GI50): 24 nM | NCI-60 screening: Log(GI50) [1]: -7.92 | NCI-60 screening: Log(RedIndex) [1]: 2.22 | GI50 (cell line A549/ATCC (LC:A549/ATCC), TMI sheet, read-out: NCI-60 screening: Raw GI50): 12 nM | NCI-60 screening: Log(GI50) [2]: -7.81 | NCI-60 screening: Log(RedIndex) [2]: 2.01 | GI50 (cell line BT-549 (BR:BT-549), TMI sheet, read-out: NCI-60 screening: Raw GI50): 15 nM | NCI-60 screening: Log(GI50) [3]: -7.58 | NCI-60 screening: Log(RedIndex) [3]: 1.58 | NCI-60 screening: Log(GI50) [4]: -7.31 | NCI-60 screening: Log(RedIndex) [4]: 1.44 | NCI-60 screening: Log(GI50) [5]: -7.74 | NCI-60 screening: Log(RedIndex) [5]: 2.03 | GI50 (cell line EKVX (LC:EKVX), TMI sheet, read-out: NCI-60 screening: Raw GI50): 18 nM | NCI-60 screening: Log(GI50) [6]: -7.81 | NCI-60 screening: Log(RedIndex) [6]: 1.99 | GI50 (cell line HCC-2998 (CO:HCC-2998), TMI sheet, read-out: NCI-60 screening: Raw GI50): 15 nM | NCI-60 screening: Log(GI50) [7]: -7.66 | NCI-60 screening: Log(RedIndex) [7]: 1.9 | NCI-60 screening: Log(GI50) [8]: -7.74 | NCI-60 screening: Log(RedIndex) [8]: 1.92 | GI50 (cell line HCT-116 (CO:HCT-116), TMI sheet, read-out: NCI-60 screening: Raw GI50): 18 nM | NCI-60 screening: Log(GI50) [9]: -7.92 | NCI-60 screening: Log(RedIndex) [9]: 1.8 | GI50 (cell line HL-60(TB) (LE:HL-60(TB)), TMI sheet, read-out: NCI-60 screening: Raw GI50): 12 nM | NCI-60 screening: Log(GI50) [10]: -7.91 | NCI-60 screening: Log(RedIndex) [10]: 1.68 | GI50 (cell line HOP-62 (LC:HOP-62), TMI sheet, read-out: NCI-60 screening: Raw GI50): 12 nM | NCI-60 screening: Log(GI50) [11]: -7.57 | NCI-60 screening: Log(RedIndex) [11]: 1.97 | GI50 (cell line HOP-92 (LC:HOP-92), TMI sheet, read-out: NCI-60 screening: Raw GI50): 27 nM | NCI-60 screening: Log(GI50) [12]: -7.47 | NCI-60 screening: Log(RedIndex) [12]: 1.65 | GI50 (cell line HT29 (CO:HT29), TMI sheet, read-out: NCI-60 screening: Raw GI50): 34 nM | NCI-60 screening: Log(GI50) [13]: -7.61 | NCI-60 screening: Log(RedIndex) [13]: 1.44 | GI50 (cell line K-562 (LE:K-562), TMI sheet, read-out: NCI-60 screening: Raw GI50): 25 nM | NCI-60 screening: Log(GI50) [14]: -7.36 | NCI-60 screening: Log(RedIndex) [14]: 1.68 | NCI-60 screening: Log(GI50) [15]: -7.91 | NCI-60 screening: Log(RedIndex) [15]: 1.96 | GI50 (cell line LOX IMVI (ME:LOX IMVI), TMI sheet, read-out: NCI-60 screening: Raw GI50): 12 nM | NCI-60 screening: Log(GI50) [16]: -7.98 | NCI-60 screening: Log(RedIndex) [16]: 2.16 | GI50 (cell line M14 (ME:M14), TMI sheet, read-out: NCI-60 screening: Raw GI50): 10 nM | NCI-60 screening: Log(GI50) [17]: -7.86 | NCI-60 screening: Log(RedIndex) [17]: 2.06 | NCI-60 screening: Log(GI50) [18]: -8.28 | NCI-60 screening: Log(RedIndex) [18]: 1.78 | NCI-60 screening: Log(GI50) [19]: -7.56 | NCI-60 screening: Log(RedIndex) [19]: 1.81 | GI50 (cell line MDA-MB-435 (ME:MDA-MB-435), TMI sheet, read-out: NCI-60 screening: Raw GI50): 27 nM | NCI-60 screening: Log(GI50) [20]: -8 | NCI-60 screening: Log(RedIndex) [20]: 1.78 | NCI-60 screening: Log(GI50) [21]: -8.02 | NCI-60 screening: Log(RedIndex) [21]: 1.69 | GI50 (cell line NCI-H23 (LC:NCI-H23), TMI sheet, read-out: NCI-60 screening: Raw GI50): 9.5 nM | NCI-60 screening: Log(GI50) [22]: -7.02 | NCI-60 screening: Log(RedIndex) [22]: 1.18 | NCI-60 screening: Log(GI50) [23]: -7.47 | NCI-60 screening: Log(RedIndex) [23]: 1.64 | GI50 (cell line RPMI-8226 (LE:RPMI-8226), TMI sheet, read-out: NCI-60 screening: Raw GI50): 34 nM | NCI-60 screening: Log(GI50) (cell line SF-268 (CNS:SF-268), TMI sheet): -7.83 | GI50 (cell line SF-268 (CNS:SF-268), TMI sheet, read-out: NCI-60 screening: Raw GI50): 15 nM | NCI-60 screening: Log(GI50) (cell line SF-295 (CNS:SF-295), TMI sheet): -8.01 | NCI-60 screening: Log(GI50) [24]: -8 | NCI-60 screening: Log(RedIndex) [24]: 2.12 | GI50 (cell line SF-539 (CNS:SF-539), TMI sheet, read-out: NCI-60 screening: Raw GI50): 10 nM | NCI-60 screening: Log(GI50) [25]: -7.88 | NCI-60 screening: Log(RedIndex) [25]: 2.09 | NCI-60 screening: Log(GI50) [26]: -7.84 | NCI-60 screening: Log(RedIndex) [26]: 2.39 | GI50 (cell line SK-MEL-28 (ME:SK-MEL-28), TMI sheet, read-out: NCI-60 screening: Raw GI50): 15 nM | NCI-60 screening: Log(GI50) [27]: -7.79 | NCI-60 screening: Log(RedIndex) [27]: 2.13 | GI50 (cell line SNB-19 (CNS:SNB-19), TMI sheet, read-out: NCI-60 screening: Raw GI50): 16 nM | NCI-60 screening: Log(GI50) [28]: -8.4 | NCI-60 screening: Log(RedIndex) [28]: 1.84 | NCI-60 screening: Log(GI50) [29]: -7.24 | NCI-60 screening: Log(RedIndex) [29]: 1.51 | GI50 (cell line SW-620 (CO:SW-620), TMI sheet, read-out: NCI-60 screening: Raw GI50): 58 nM | NCI-60 screening: Log(GI50) [30]: -7.3 | NCI-60 screening: Log(RedIndex) [30]: 1.58 | NCI-60 screening: Log(GI50) [31]: -7.96 | NCI-60 screening: Log(RedIndex) [31]: 2.14 | NCI-60 screening: Log(GI50) [32]: -7.82 | NCI-60 screening: Log(RedIndex) [32]: 2.01 | GI50 (cell line UACC-62 (ME:UACC-62), TMI sheet, read-out: NCI-60 screening: Raw GI50): 15 nM | NCI-60 screening: Log(GI50) [33]: -7.62 | NCI-60 screening: Log(RedIndex) [33]: 1.92 | mean reductive index (mean over NCI cell lines, vs P-CC60): ca. 70 | GI50 (read-out: NCI-60 screening: Raw GI50): 160 nM
